# Experimental data published in US20160168140A1, “HETEROCYCLIC COMPOUNDS AS ANTIBIOTIC POTENTIATORS” (priority 2014, published 2016).
# Test system: Acinetobacter baumannii (Ab23)
# Assay: MIC shift assay of antibiotics (broth microdilution)
# Format: cell-based
# Details: fold shift of colistin MIC, nc = no changeover or no shift
# In short: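 Broth microdilution MIC shift assay against Acinetobacter baumannii. Overnight cultures in cation-adjusted Mueller Hinton broth at 37° C. were sub-cultured 1:200, grown to OD600=0.5 to 0.8, diluted to OD600=0.01, and added (50 μL) to wells holding 50 μL of 2× antibiotic stocks for a starting OD600 of 0.005. After 18 to 20 h at 37° C. with shaking, OD600 was read to obtain MICs.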
Compound,"colistin MIC shift, Ab23 at (compd concentration) (compound concentration 4 μM)",also measured
O=C(Nc1cccc(C(F)(F)F)c1)c1c[nH]c2ccc(Br)cc12 [compound 428],–,"colistin MIC shift, Ab23 at (compd concentration) (compound concentration 8 μM): 4x"
COc1ccc2[nH]cc(/C=C/c3ccc(Cl)c(Cl)c3)c2c1 [compound 373],8-16x,–
FC(F)(F)c1ccc2c(-c3cccc(-c4ccc(Cl)c(Cl)c4)c3)n[nH]c2c1 [compound 527],–,"colistin MIC shift, Ab23 at (compd concentration) (compound concentration 10 μM): 8x"
CCN(CC)CCCC(C)Nc1nc(/C=C/c2ccc(Cl)cc2)nc2cc(Cl)ccc12 (racemic) [compound 310],–,"colistin MIC shift, Ab23 at (compd concentration) (compound concentration 10 μM): 8x"
"COc1ccc2c(NCCCN(C)C)nc(/C=C/c3ccc(Cl)c(Cl)c3)nc2c1C [compound 467, (E)-N^1-(2-(3,4-dichlorostyryl)-7-methoxy-8-methylquinazolin-4-yl)-N^3,N^3-dimethylpropane-1,3-diamine]",16x,–
Cc1cccc2c(NCCCN(C)C)nc(-c3cc(-c4ccccc4F)cc(C(F)(F)F)c3)nc12 [compound 341],–,"colistin MIC shift, Ab23 at (compd concentration) (compound concentration 2 μM): 8-16x"
Fc1ccc2c(/C=C/c3ccc(Br)c(Br)c3)c[nH]c2c1 [compound 378],16-32 x,–
FC(F)(F)c1cc(Cl)cc(-c2n[nH]c3cc(C(F)(F)F)ccc23)c1 [compound 551],–,"colistin MIC shift, Ab23 at (compd concentration) (compound concentration 10 μM): 32x"
CN(C)CCCNc1nc(-c2cn(Cc3ccccc3)c3c(Cl)cccc23)nc2ccccc12 [compound 563],–,"colistin MIC shift, Ab23 at (compd concentration) (compound concentration 10 μM): 8x"
Fc1cccc(/C=C/c2c[nH]c3cc(F)ccc23)c1 [compound 399],–,"colistin MIC shift, Ab23 at (compd concentration) (compound concentration 10 μM): 8x"
CCN(CC)CCCC(C)Nc1nc(/C=C/c2ccc(Cl)c(Cl)c2)nc2cc(Cl)ccc12 (racemic) [compound 325],4x,–
FC(F)(F)c1ccc2[nH]nc(-c3ccc(Cl)c(Cl)c3)c2c1 [compound 555],–,"colistin MIC shift, Ab23 at (compd concentration) (compound concentration 10 μM): 32x"
FC(F)(F)c1ccc2c(/C=C/c3ccc(Cl)c(Cl)c3)c[nH]c2c1 [compound 364],32-64x,–
Clc1ccc(-c2c[nH]c3cc(Cl)c(Cl)cc23)cc1Cl [compound 432],–,"colistin MIC shift, Ab23 at (compd concentration) (compound concentration 2 μM): 8x"
Cc1c(-c2ccccc2)ccc2c(NCCCN(C)C)nc(-c3cc(Br)cc(C(F)(F)F)c3)nc12 [524d],16-32x,–
Cc1cccc2c(NCCCN(C)C)nc(-c3cc(-c4cncs4)cc(C(F)(F)F)c3)nc12 [compound 346],–,"colistin MIC shift, Ab23 at (compd concentration) (compound concentration 2 μM): 8-16x"
CN(C)CCn1nc(-c2ccc(Cl)c(Cl)c2)c2ccc(C(F)(F)F)cc21 [559c],–,"colistin MIC shift, Ab23 at (compd concentration) (compound concentration 8 μM): 2x"
O=C(c1ccc(Cl)c(Cl)c1)n1nc(-c2ccc(Cl)c(Cl)c2)c2ccc(C(F)(F)F)cc21 [compound 558],–,"colistin MIC shift, Ab23 at (compd concentration) (compound concentration 10 μM): 1x"
Fc1ccc2c(/C=C/c3cccc(C(F)(F)F)c3)c[nH]c2c1 [compound 396],8x,–
FC(F)(F)c1cc(Cl)cc(-c2c[nH]c3cc(Cl)c(Cl)cc23)c1 [compound 434],32x,–
Cc1cccc2c(NCCCN(C)C)nc(-c3cc(-c4ccncc4)cc(C(F)(F)F)c3)nc12 [compound 336],–,"colistin MIC shift, Ab23 at (compd concentration) (compound concentration 2 μM): 8-16x"

Compound,"colistin MIC shift, Ab23 at (compd concentration) (compound concentration 4 μM)",also measured
Fc1cccc2[nH]cc(/C=C/c3ccc(Cl)c(Cl)c3)c12 [compound 372],8-32x,–
COC(=O)c1cc(-c2n[nH]c3cc(C(F)(F)F)ccc23)cc(C(F)(F)F)c1 [compound 553],–,"colistin MIC shift, Ab23 at (compd concentration) (compound concentration 10 μM): 1x"
Clc1ccc(NCc2c[nH]c3ccc(Br)cc23)cc1Cl [compound 418],16 x,–
FC(F)(F)c1cccc2[nH]cc(/C=C/c3ccc(Cl)c(Cl)c3)c12 [compound 371],32x,–
CNCCCN(C)c1nc(-c2cc(-c3ccccc3)cc(C(F)(F)F)c2)nc2c(C)cccc12 [compound 349],–,"colistin MIC shift, Ab23 at (compd concentration) (compound concentration 2 μM): 8-16x"
O=[N+]([O-])c1ccc2[nH]cc(/C=C/c3ccc(Cl)c(Cl)c3)c2c1 [compound 379],8x,–
Clc1cccc(Cn2nc(-c3cccc(-c4ccccc4)c3)c3cc(Cl)ccc32)c1 [compound 533],–,"colistin MIC shift, Ab23 at (compd concentration) (compound concentration 10 μM): 1x"
CCN(CC)CCCC(C)Nc1nc(-c2cn(Cc3cccc(C)c3)c3c(Cl)cccc23)nc2c(C)cccc12 (racemic) [compound 574],–,"colistin MIC shift, Ab23 at (compd concentration) (compound concentration 10 μM): 8x"
CCN(CC)CCCC(C)Nc1nc(-c2cccc(-c3cccc(C(F)(F)F)c3)c2)nc2c(C)cccc12 (stereo not drawn) [compound 465],8-16x,–
Fc1ccc2c(/C=C/c3ccc(F)c(C(F)(F)F)c3)c[nH]c2c1 [compound 385],8-16 x,–
O=[N+]([O-])c1ccc2[nH]cc(/C=C\c3ccc(Cl)c(Cl)c3)c2c1 [compound 380],8x,–
CCN(CC)CCCC(C)Nc1nc(/C=C/c2cccc(Br)c2)nc2cc(Cl)ccc12 (racemic) [compound 306],–,"colistin MIC shift, Ab23 at (compd concentration) (compound concentration 8 μM): 4x"
Fc1ccc2c(/C=C/c3cc(Br)cc(Br)c3)c[nH]c2c1 [compound 389],16x,–
COc1ccc2c(NCCCN(C)C)nc(/C=C/c3ccc(Cl)c(Cl)c3)nc2c1C [335a],8x,–
CN(C)CCCNc1nc(/C=C/c2cc(Cl)ccc2Cl)nc2c(C(F)(F)F)cccc12 [compound 335],16x,–
CNCCCN(C)c1nc(-c2cccc(-c3cc(F)cc(C(F)(F)F)c3)c2)nc2c(Cl)cccc12 [compound 350],–,"colistin MIC shift, Ab23 at (compd concentration) (compound concentration 2 μM): 8-16x"
CN1CCN(CCn2cc(/C=C/c3ccc(Cl)c(Cl)c3)c3ccc(F)cc32)CC1 [compound 357],4-8x,–
CCN(CC)CCCC(C)Nc1nc(/C=C/c2ccc(Cl)c(Cl)c2)nc2cc(F)c(F)cc12 (racemic) [compound 321],–,"colistin MIC shift, Ab23 at (compd concentration) (compound concentration 10 μM): 8x"
"Clc1ccc2[nH]cc(-c3ccc(Cl)c(Cl)c3)c2c1 [compound 395, 5-Chloro-3-(3,4-dichlorophenyl)-1H-indole]",8x,–
N#Cc1ccc2[nH]cc(/C=C/c3ccc(Cl)c(Cl)c3)c2c1 [compound 375],2x,–

# Continued, in another order:
"colistin MIC shift, Ab23 at (compd concentration) (compound concentration 4 μM)",Compound,also measured
8x,CCN(CC)CCCC(C)Nc1nc(-c2cn(Cc3ccc(Cl)cc3)c3c(Cl)cccc23)nc2c(C)cccc12 (racemic) [compound 576],–
8x,CCN(CC)CCCC(C)Nc1nc(-c2cccc(-c3ccccc3)c2)nc2cc(C(F)(F)F)ccc12 (stereo not drawn) [compound 479],–
8x,CCN(CC)CCCC(C)Nc1nc(-c2cccc(-c3cc(C(F)(F)F)ccc3F)c2)nc2cc(C(F)(F)F)ccc12 (stereo not drawn) [compound 481],–
4x,CCN(CC)CCCC(C)Nc1nc(-c2cn(Cc3ccccc3)c3c(Cl)cccc23)nc2c(F)cccc12 (racemic) [compound 564],–
16x,CN(C)CCCNc1nc(-c2cccc(-c3ccc(C(F)(F)F)c(F)c3)c2)nc2c(Cl)cccc12 [compound 489],–
64x,Cc1c(Br)ccc2c(NCCCN(C)C)nc(-c3cc(Br)cc(C(F)(F)F)c3)nc12 [compound 512],–
16x,CN(C)CCCNc1nc(-c2cc(-c3ccccc3)cc(C(F)(F)F)c2)nc2c(C(F)(F)F)cccc12 [compound 514],–
2-4x,CN(C)CCCNc1nc(-c2cn(Cc3ccccc3)c3c(Cl)cccc23)nc2c(F)cccc12 [compound 565],–
8x,Fc1cc(C(F)(F)F)ccc1-c1n[nH]c2cc(C(F)(F)F)ccc12 [compound 544],–
4x,CCNCCCC(C)Nc1nc(-c2cn(Cc3ccccc3)c3c(Cl)cccc23)nc2c(C)cccc12 (racemic) [compound 581],–
16x,Cc1cccc2c(NCCCN(C)C)nc(-c3cccc(-c4cccc(Cl)c4Cl)c3)nc12 [compound 484],–
32x,Cc1cccc2c(N(C)CCCN(C)C)nc(-c3cc(Br)cc(C(F)(F)F)c3)nc12 [compound 502],–
8x,CCN(CC)CCCC(C)Nc1nc(-c2cccc(-c3ccc(C(F)(F)F)cc3F)c2)nc2c(C)cccc12 (stereo not drawn) [compound 471],–
32x,CN(C)CCCNc1nc(-c2cccc(-c3cc(C(F)(F)F)ccc3F)c2)nc2cc(C(F)(F)F)ccc12 [compound 482],–
16x,CCN(CC)CCCC(C)Nc1nc(-c2cc(-c3cccc(C(F)(F)F)c3)cc(C(F)(F)F)c2)nc2c(C)cccc12 (stereo not drawn) [compound 493],–
4x,CN(C)CCCNc1nc(-c2cccc(-c3ccccc3)c2)nc2c(Cl)cccc12 [compound 486],–
1x,FC(F)(F)c1ccc2c(-c3cccc(Cl)c3Cl)n[nH]c2c1 [compound 543],–
16x,Cc1cccc2c(NCCCN(C)C)nc(-c3cc(-c4cccc(C(F)(F)F)c4)cc(C(F)(F)F)c3)nc12 [compound 494],–
16x,Cc1cccc2c(NCCCN(C)C)nc(-c3cn(Cc4cccc(Cl)c4)c4c(Cl)cccc34)nc12 [compound 579],–
